According to ChEMBL document CHEMBL1201862, “PubChem BioAssay data set” (2004):
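1) Cells in 96-well plates. 2) Compound, 48 h, 5 concentrations. 3) Linear interpolation between surrounding doses. 4) Unreached endpoint = highest concentration. GI50: concentration for 50% inhibition of growth.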 Activity calls are given as the source filed them. Rule as the data show it: active = GI50 up to about 1.1 µM and inactive = higher.

How the values were obtained:
Experiment in all cases: growth of human tumour cells (NCI), 48 h
SF-539 = system: SF-539
M14 = system: M14
UACC-62 = system: UACC-62
SK-MEL-2 = system: SK-MEL-2
RXF 393 = system: RXF 393
RPMI-8226 = system: RPMI-8226
HCT-15 = system: HCT-15
IGROV-1 = system: IGROV-1
DMS-273 = system: DMS-273
EKVX = system: EKVX
SNB-19 = system: SNB-19
HOP-62 = system: HOP-62
NCI-H522 = system: NCI-H522
SNB-75 = system: SNB-75
SF-268 = system: SF-268
SW-620 = system: SW-620
MOLT-4 = system: MOLT-4
SK-OV-3 = system: SK-OV-3
NCI-H23 = system: NCI-H23
SK-MEL-5 = system: SK-MEL-5
RXF 631 = system: RXF 631
OVCAR-8 = system: OVCAR-8
A498 = system: A498
DLD-1 = system: DLD-1
OVCAR-3 = system: OVCAR-3
SK-MEL-28 = system: SK-MEL-28
Malme-3M = system: Malme-3M
SN12C = system: SN12C
HT-29 = system: HT-29
HCT-116 = system: HCT-116
UACC-257 = system: UACC-257
A549 = system: A549
SNB-78 = system: SNB-78
M19-MEL = system: M19-MEL
CCRF-CEM = system: CCRF-CEM
786-0 = system: 786-0
HL-60 = system: HL-60
UO-31 = system: UO-31
NCI-H226 = system: NCI-H226
KM-20L2 = system: KM-20L2
HOP-92 = system: HOP-92
U-251 = system: U-251
NCI-H460 = system: NCI-H460
K562 = system: K562
HCC 2998 = system: HCC 2998
CAKI-1 = system: CAKI-1
OVCAR-4 = system: OVCAR-4
OVCAR-5 = system: OVCAR-5
LOX IMVI = system: LOX IMVI
TK-10 = system: TK-10
DMS-114 = system: DMS-114
SF-295 = system: SF-295
ACHN = system: ACHN
KM12 = system: KM12
MDA-MB-435 = system: MDA-MB-435
PC-3 = system: PC-3
LXFL 529 = system: LXFL 529
MDA-N = system: MDA-N
MCF7 = system: MCF7
COLO 205 = system: COLO 205
HOP-18 = system: HOP-18
XF498 = system: XF498
MDA-MB-231 = system: MDA-MB-231
Hs-578T = system: Hs-578T
BT-549 = system: BT-549
T47D = system: T47D
DU-145 = system: DU-145

**Q.** Which results are given for BrC1=CC=C2NCCCCCC/N=C3\C=CC(Br)=CC=C3NCCCCCC/N=C\2C=C1?
**A.** GI50 (SF-539): > 25.5 µM (inactive); GI50 (M14): > 25.5 µM (inactive); GI50 (UACC-62): > 25.5 µM (inactive); GI50 (SK-MEL-2): > 25.5 µM (inactive); GI50 (RXF 393): > 25.5 µM (inactive); GI50 (RPMI-8226): > 25.5 µM (inactive); GI50 (HCT-15): > 25.5 µM; GI50 (IGROV-1): > 25.5 µM (inactive); GI50 (DMS-273): > 25.5 µM (inactive); GI50 (EKVX): > 25.5 µM (inactive); GI50 (SNB-19): > 25.5 µM (inactive); GI50 (HOP-62): > 25.5 µM (inactive); GI50 (NCI-H522): > 25.5 µM (inactive); GI50 (SNB-75): > 25.5 µM (inactive); GI50 (SF-268): > 25.5 µM (inactive); GI50 (SW-620): > 25.5 µM (inactive); GI50 (MOLT-4): > 25.5 µM (inactive); GI50 (SK-OV-3): > 25.5 µM (inactive); GI50 (NCI-H23): > 25.5 µM (inactive); GI50 (SK-MEL-5): > 25.5 µM (inactive); GI50 (RXF 631): > 25.5 µM (inactive); GI50 (OVCAR-8): > 25.5 µM (inactive); GI50 (A498): > 25.5 µM (inactive); GI50 (DLD-1): > 25.5 µM (inactive); GI50 (OVCAR-3): > 25.5 µM (inactive); GI50 (SK-MEL-28): > 25.5 µM (inactive); GI50 (Malme-3M): > 25.5 µM (inactive); GI50 (SN12C): > 25.5 µM (inactive); GI50 (HT-29): > 25.5 µM (inactive); GI50 (HCT-116): > 25.5 µM (inactive); GI50 (UACC-257): > 25.5 µM (inactive); GI50 (A549): > 25.5 µM (inactive); GI50 (SNB-78): > 25.5 µM (inactive); GI50 (M19-MEL): > 25.5 µM (inactive); GI50 (CCRF-CEM): > 25.5 µM (inactive); GI50 (786-0): > 25.5 µM (inactive); GI50 (HL-60): > 25.5 µM (inactive); GI50 (UO-31): > 25.5 µM (inactive); GI50 (NCI-H226): > 25.5 µM (inactive); GI50 (KM-20L2): > 25.5 µM (inactive); GI50 (HOP-92): > 25.5 µM (inactive); GI50 (U-251): > 25.5 µM (inactive); GI50 (NCI-H460): > 25.5 µM (inactive); GI50 (K562): > 25.5 µM (inactive); GI50 (HCC 2998): > 25.5 µM (inactive); GI50 (CAKI-1): > 25.5 µM (inactive); GI50 (OVCAR-4): > 25.5 µM (inactive); GI50 (OVCAR-5): > 25.5 µM (inactive); GI50 (LOX IMVI): > 25.5 µM (inactive); GI50 (TK-10): > 25.5 µM (inactive); GI50 (DMS-114): > 25.5 µM (inactive); GI50 (SF-295): > 25.5 µM (inactive); GI50 (ACHN): > 25.5 µM (inactive); GI50 (KM12): > 25.5 µM (inactive)

**Q.** With Cc1cc(NC(=O)NC(=O)c2ccccc2[N+](=O)[O-])ccc1Oc1ncc(Cl)cn1 as the molecule, how does the GI50 (SF-539) read?
**A.** 0.0883 µM (active)

**Q.** And the GI50 (M14)?
**A.** 0.0782 µM (active)

**Q.** What about the GI50 (UACC-62) of the same molecule?
**A.** 0.0551 µM (active)

**Q.** And the GI50 (MDA-MB-435)?
**A.** 0.0115 µM (active)

**Q.** What about the GI50 (PC-3) of the same molecule?
**A.** 0.0336 µM (active)

**Q.** And the GI50 (RXF 393)?
**A.** 0.0447 µM (active)

**Q.** And the GI50 (RPMI-8226)?
**A.** 0.223 µM (active)

**Q.** What about the GI50 (LXFL 529) of the same molecule?
**A.** 0.0773 µM (active)

**Q.** And the GI50 (HCT-15)?
**A.** 0.113 µM

**Q.** What about the GI50 (IGROV-1) of the same molecule?
**A.** 0.51 µM (active)

**Q.** And the GI50 (MDA-N)?
**A.** < 0.01 µM (active)

**Q.** And the GI50 (DMS-273)?
**A.** 0.0501 µM (active)

**Q.** What about the GI50 (MCF7) of the same molecule?
**A.** 0.037 µM (active)

**Q.** And the GI50 (SNB-19)?
**A.** 0.212 µM (active)

**Q.** What about the GI50 (HOP-62) of the same molecule?
**A.** 0.0581 µM (active)

**Q.** And the GI50 (COLO 205)?
**A.** 0.107 µM (active)

**Q.** And the GI50 (NCI-H522)?
**A.** 0.0402 µM (active)

**Q.** And the GI50 (SNB-75)?
**A.** 0.0456 µM (active)

**Q.** What about the GI50 (SF-268) of the same molecule?
**A.** 1.9 µM (inactive)

**Q.** And the GI50 (SW-620)?
**A.** 0.0501 µM (active)

**Q.** And the GI50 (MOLT-4)?
**A.** 0.0702 µM (active)

**Q.** And the GI50 (SK-OV-3)?
**A.** 0.0575 µM (active)

**Q.** And the GI50 (NCI-H23)?
**A.** 0.222 µM (active)

**Q.** What about the GI50 (SK-MEL-5) of the same molecule?
**A.** 0.0362 µM (active)

**Q.** And the GI50 (OVCAR-8)?
**A.** 0.303 µM (active)

**Q.** And the GI50 (A498)?
**A.** 0.0604 µM (active)

**Q.** What about the GI50 (DLD-1) of the same molecule?
**A.** 0.0783 µM (active)

**Q.** What about the GI50 (OVCAR-3) of the same molecule?
**A.** 0.0361 µM (active)

**Q.** And the GI50 (SK-MEL-28)?
**A.** 2.37 µM (inactive)

**Q.** What about the GI50 (HOP-18) of the same molecule?
**A.** 23.4 µM (inactive)

**Q.** And the GI50 (Malme-3M)?
**A.** 0.0231 µM (active)

**Q.** And the GI50 (SN12C)?
**A.** 0.492 µM (active)

**Q.** And the GI50 (HT-29)?
**A.** 0.0488 µM (active)

**Q.** And the GI50 (HCT-116)?
**A.** 0.082 µM (active)

**Q.** What about the GI50 (UACC-257) of the same molecule?
**A.** 0.0431 µM (active)

**Q.** What about the GI50 (A549) of the same molecule?
**A.** 0.125 µM (active)

**Q.** What about the GI50 (SNB-78) of the same molecule?
**A.** 0.0964 µM (active)

**Q.** And the GI50 (M19-MEL)?
**A.** 0.316 µM (active)

**Q.** What about the GI50 (XF498) of the same molecule?
**A.** 0.0671 µM (active)

**Q.** What about the GI50 (CCRF-CEM) of the same molecule?
**A.** 0.0552 µM (active)

**Q.** What about the GI50 (786-0) of the same molecule?
**A.** 0.0671 µM (active)

**Q.** And the GI50 (HL-60)?
**A.** 0.0327 µM (active)

**Q.** What about the GI50 (UO-31) of the same molecule?
**A.** 0.0889 µM (active)

**Q.** And the GI50 (NCI-H226)?
**A.** 0.232 µM (active)

**Q.** What about the GI50 (KM-20L2) of the same molecule?
**A.** 0.0906 µM (active)

**Q.** What about the GI50 (U-251) of the same molecule?
**A.** 0.0916 µM (active)

**Q.** And the GI50 (NCI-H460)?
**A.** 0.0548 µM (active)

**Q.** And the GI50 (MDA-MB-231)?
**A.** 0.664 µM (active)

**Q.** What about the GI50 (K562) of the same molecule?
**A.** 0.037 µM (active)

**Q.** And the GI50 (HCC 2998)?
**A.** 0.146 µM (active)

**Q.** And the GI50 (Hs-578T)?
**A.** 0.0257 µM (active)

**Q.** And the GI50 (OVCAR-4)?
**A.** 14.1 µM (inactive)

**Q.** What about the GI50 (OVCAR-5) of the same molecule?
**A.** 16.5 µM (inactive)

**Q.** What about the GI50 (BT-549) of the same molecule?
**A.** 29.4 µM (inactive)

**Q.** What about the GI50 (LOX IMVI) of the same molecule?
**A.** 0.133 µM (active)

**Q.** What about the GI50 (TK-10) of the same molecule?
**A.** 19.8 µM (inactive)

**Q.** And the GI50 (DMS-114)?
**A.** 0.0927 µM (active)

**Q.** What about the GI50 (T47D) of the same molecule?
**A.** 34.1 µM (inactive)

**Q.** And the GI50 (SF-295)?
**A.** 0.0598 µM (active)

**Q.** What about the GI50 (ACHN) of the same molecule?
**A.** 1.88 µM (inactive)

**Q.** And the GI50 (DU-145)?
**A.** 1.81 µM (inactive)

**Q.** And the GI50 (KM12)?
**A.** 0.0519 µM (active)
